How the values were obtained:
Assay in all cases: Test F pre/postemergence
Assay type in all cases: in vivo
[1] = tested on: annual bluegrass (Poa annua)
Source text: (§1) Seeds or nutlets of plant species selected from (turf) bermudagrass (Cynodon dactylon), Kentucky bluegrass (Poa pratensis), bentgrass (Agrostis palustris), hard fescue (Festuca ovina), large crabgrass (Digitaria sanguinalis), goosegrass (Eleusine indica), dallisgrass (Paspalum dilatatum), annual bluegrass (Poa annua), common chickweed (Stellaria media), dandelion (Taraxacum officinale), white clover (Trifolium repens), and yellow nutsedge (Cyperus esculentus) were planted and treated preemergence with the test chemical formulated in a non-phytotoxic solvent mixture which included a surfactant.
(§2) At the same time, plants selected from these crop and weed species were treated with postemergence applications of the test chemical formulated in the same manner. Plants ranged in height from 2 to 18 cm (1- to 4-leaf stage) for postemergence treatments. Treated plants and controls were maintained in a greenhouse for 12 to 14 days, after which time all species were compared to controls and visually evaluated. Plant response ratings, summarized in Table F, are based on a scale of 0 to 100 where 0 is no effect and 100 is complete control. A dash (-) response means no test result.

[2] = tested on: bentgrass (Agrostis palustris)
Source text: as §1, §2

[3] = tested on: common chickweed (Stellaria media)
Source text: as §1, §2

[4] = tested on: dandelion (Taraxacum officinale)
Source text: as §1, §2

[5] = tested on: yellow nutsedge (Cyperus esculentus)
Source text: as §1, §2

SMILES: CCOC(=O)c1nc(C2CC2)nc(N)c1Br [Compound 1, ethyl 6-amino-5-bromo-2-cyclopropyl-4-pyrimidinecarboxylate]
- Plant response rating (0 to 100 scale) ([1]; Postemergence, 31 g ai/ha): 35
- Plant response rating (0 to 100 scale) ([1]; Postemergence, 125 g ai/ha): 45
- Plant response rating (0 to 100 scale) ([1]; Postemergence, 250 g ai/ha): 70
- Plant response rating (0 to 100 scale) ([1]; Postemergence, 500 g ai/ha): 95
- Plant response rating (0 to 100 scale) ([1]; Preemergence, 31 g ai/ha): 20
- Plant response rating (0 to 100 scale) ([1]; Preemergence, 62 g ai/ha): 65
- Plant response rating (0 to 100 scale) ([1]; Preemergence, 125 g ai/ha): 45
- Plant response rating (0 to 100 scale) ([1]; Preemergence, 250 g ai/ha): 70
- Plant response rating (0 to 100 scale) ([1]; Preemergence, 500 g ai/ha): 70
- Plant response rating (0 to 100 scale) ([2]; Postemergence, 31 g ai/ha): 0
- Plant response rating (0 to 100 scale) ([2]; Postemergence, 62 g ai/ha): 30
- Plant response rating (0 to 100 scale) ([2]; Postemergence, 125 g ai/ha): 50
- Plant response rating (0 to 100 scale) ([2]; Postemergence, 250 g ai/ha): 50
- Plant response rating (0 to 100 scale) ([2]; Postemergence, 500 g ai/ha): 70
- Plant response rating (0 to 100 scale) ([2]; Preemergence, 31 g ai/ha): 50
- Plant response rating (0 to 100 scale) ([2]; Preemergence, 62 g ai/ha): 60
- Plant response rating (0 to 100 scale) ([2]; Preemergence, 125 g ai/ha): 60
- Plant response rating (0 to 100 scale) ([2]; Preemergence, 250 g ai/ha): 90
- Plant response rating (0 to 100 scale) ([2]; Preemergence, 500 g ai/ha): 100
- Plant response rating (0 to 100 scale) ([3]; Postemergence, 31 g ai/ha): 0
- Plant response rating (0 to 100 scale) ([3]; Postemergence, 62 g ai/ha): 80
- Plant response rating (0 to 100 scale) ([3]; Postemergence, 125 g ai/ha): 85
- Plant response rating (0 to 100 scale) ([3]; Postemergence, 250 g ai/ha): 85
- Plant response rating (0 to 100 scale) ([3]; Postemergence, 500 g ai/ha): 100
- Plant response rating (0 to 100 scale) ([3]; Preemergence, 31 g ai/ha): 80
- Plant response rating (0 to 100 scale) ([3]; Preemergence, 62 g ai/ha): 100
- Plant response rating (0 to 100 scale) ([3]; Preemergence, 125 g ai/ha): 100
- Plant response rating (0 to 100 scale) ([3]; Preemergence, 250 g ai/ha): 100
- Plant response rating (0 to 100 scale) ([3]; Preemergence, 500 g ai/ha): 100
- Plant response rating (0 to 100 scale) ([4]; Postemergence, 31 g ai/ha): 50
- Plant response rating (0 to 100 scale) ([4]; Postemergence, 62 g ai/ha): 75
- Plant response rating (0 to 100 scale) ([4]; Postemergence, 125 g ai/ha): 75
- Plant response rating (0 to 100 scale) ([4]; Postemergence, 250 g ai/ha): 85
- Plant response rating (0 to 100 scale) ([4]; Postemergence, 500 g ai/ha): 95
- Plant response rating (0 to 100 scale) ([4]; Preemergence, 31 g ai/ha): 35
- Plant response rating (0 to 100 scale) ([4]; Preemergence, 62 g ai/ha): 95
- Plant response rating (0 to 100 scale) ([4]; Preemergence, 125 g ai/ha): 100
- Plant response rating (0 to 100 scale) ([4]; Preemergence, 250 g ai/ha): 100
- Plant response rating (0 to 100 scale) ([4]; Preemergence, 500 g ai/ha): 100
- Plant response rating (0 to 100 scale) ([5]; Postemergence, 31 g ai/ha): 0
- Plant response rating (0 to 100 scale) ([5]; Postemergence, 62 g ai/ha): 10
- Plant response rating (0 to 100 scale) ([5]; Postemergence, 125 g ai/ha): 10
- Plant response rating (0 to 100 scale) ([5]; Postemergence, 250 g ai/ha): 15
- Plant response rating (0 to 100 scale) ([5]; Postemergence, 500 g ai/ha): 15
- Plant response rating (0 to 100 scale) ([5]; Preemergence, 31 g ai/ha): 0
- Plant response rating (0 to 100 scale) ([5]; Preemergence, 62 g ai/ha): 15
- Plant response rating (0 to 100 scale) ([5]; Preemergence, 125 g ai/ha): 30
- Plant response rating (0 to 100 scale) ([5]; Preemergence, 250 g ai/ha): 25
- Plant response rating (0 to 100 scale) ([5]; Preemergence, 500 g ai/ha): 70

Reference: patent publication US8802597B2, “Herbicidal pyrimidines” (E I du Pont de Nemours and Company, priority 2003, dated 2014)
